Laboratory results: patent publication US9415063B2, “Treatment of neurological disorders” (VELACOR THERAPEUTICS PTY LTD., priority 2007, dated 2016)
Read-outs that look alike come from different tables or passages of the source.

Key:
[1] = system: cultured rat hippocampal slices; assay: Tissue culture toxicity screen in organotypic hippocampal slice cultures
Description: (§1) Wistar rat pups (8-11 days old) were decapitated and the hippocampus rapidly dissected into ice-cold Gey's balanced salt solution supplemented with 4.5 mg/mL glucose. Transverse sections (400 μm) were cut on a McIlwain tissue chopper and placed back into ice-cold Gey's balanced salt solution. Slices were separated and plated onto Millicell CM culture inserts (4 per well) and maintained at 37° C./5% CO2 for 14 days. Maintenance medium consists of 25% heat-inactivated horse serum, 25% Hank's balanced salt solution (HBSS) and 50% minimum essential medium with added Earle's salts (MEM), supplemented with 1 mM glutamine and 4.5 mg/mL glucose. Medium was changed every 3-4 days.
(§2) Neuronal damage was assessed using ImageJ software running on a PC. Images being captured using a monochrome CCD camera and saved for offline analysis. Light transmission images were captured prior to the addition of drugs, and PI fluorescence images recorded at the end of the 24-hour recovery period. The area of the CA1 region was then determined from the transmission image. The area of PI fluorescence in the CA1 is measured using the threshold function on ImageJ, and neuronal damage expressed as the percentage of the CA1 in which PI fluorescence is detected above background (Pringle et al., 1997).
A preliminary toxicity screen was carried out on the compounds to determine tissue culture exposure levels that would cause toxicity. […] Damage was measured after 24 hours and 48 hours.
(§3) In this case the sodium selenate was made to 50 mM in SFM, then serially diluted to 25 mM, 10 mM and 1 mM, each of these used at 10 μL/mL to give final concentrations of 10 μM, 100 μM, 250 μM and 500 μM. Sodium selenite and selenomethionine as before. An experiment to assess the toxicity of sodium selenate at these higher concentrations was run in parallel with the OGD (Results FIG. 4).

[2] = system: cultured rat hippocampal slices (CA1 region); assay: Hypoxia induced neurodegeneration in organotypic hippocampal slice cultures; type: cell-based, Wistar rat; conditions: 100 μM; compound present 24 hours pre-, during 3 hours of and 24 hours post-hypoxia; vs hypoxia alone
Description: as §1
PI fluorescence was detected using a Leica DMIL inverted microscope fitted with a rhodamine filter set. […]
as §2, with “Images being captured using a monochrome CCD camera and saved for offline analysis.” left out

PTZ induced seizures = conditions: for Number of seizures: 30 minutes observation; for Number of seizures / Duration of seizure activity / Number of severe seizures / Latency to seizure onset: mean±SEM; for Latency to seizure onset: not significant vs vehicle
Description: All animal experiments were carried out according to the National Institute of Health (NIH) guidelines for the care and use of laboratory animals, and approved by the Ethical Committee of the National Laboratory Animal Center, Kuopio, Finland. Altogether 30 adult male Sprague-Dawley rats (Taconic, Denmark) weighing 200-240 g were used. Animals were housed at a standard temperature (22±1° C.) and in a light-controlled environment (lights on from 7 am to 8 pm) with ad libitum access to food and water.
Animals were grouped as follows: • 10 rats treated with vehicle (sterile water as drinking water). • 10 rats treated with sodium selenate anhydrous (120 microgram in 100 mL sterile water), p.o in drinking water for 7 days prior to PTZ injection. • 10 rats treated with sodium selenate anhydrous (1.2 milligram in 100 mL sterile water), p.o in drinking water for 7 days prior to PTZ injection. PTZ Induced Seizures
Pentylenetetrazol (PTZ) (60 mg/kg) is administered intraperitoneally (i.p., 2 mL/kg in saline) to male Sprague-Dawley rats.
Sodium selenate is administered p.o in drinking water for 7 days prior to PTZ injection. The rats have ad libitum access to water (normal daily consumption of water is 30 mL/rat/day).
The incidence of seizures (seizure and severe seizure), the latency for the first seizure appearance and the duration of seizure activity were used as indices of anticonvulsant effect. Seizure numbers were not counted if the animal died. […] Animals that died were assigned the maximum seizure duration of 30 minutes. […] Severe seizure was defined as a prolonged seizure involving stretching and twisting convulsions.
Values are presented as percentages and differences are considered to be statistically significant at the P<0.05 level. Statistical analysis was performed using StatsDirect software. Differences among groups were analyzed by 1-way-ANOVA followed by Dunnet's test (comparison to the control (=vehicle treated PTZ rats) group).

[3] = system: cultured rat hippocampal slices (CA1 region); assay: Ischaemia (oxygen glucose deprivation) induced neurodegeneration in organotypic hippocampal slice cultures; type: cell-based, Wistar rat
Description: as §1, §2, §3

[4] = 120 μg in 100 mL drinking water p.o. 7 days prior to PTZ
[5] = 1.2 mg in 100 mL drinking water p.o. 7 days prior to PTZ
[6] = 100 μM, compound present 24 hours pre-, during 1 hour of and 24 hours post-ischaemia, vs OGD alone

Compound | Concentration above which compound was toxic in tissue culture ([1]; serum free media, tested at 5 μM, 25 μM and 100 μM, damage measured after 24 hours and 48 hours) | Toxicity in tissue culture in the absence of hypoxia ([1]; 500 μM, run in parallel with the OGD experiment (FIG. 4)) | Tissue culture toxicity ([1]; serum free media, any concentration tested up to 100 μM, 24 hours and 48 hours) | Neuronal damage (PI fluorescence in CA1) after hypoxia [2] | Number of seizures (PTZ induced seizures; [4]) | Duration of seizure activity (PTZ induced seizures; [4]) | Number of severe seizures (PTZ induced seizures; [4]) | Latency to seizure onset (PTZ induced seizures; [4]) | Mortality (PTZ induced seizures; 120 μg in 100 mL drinking water p.o. for 7 days prior to PTZ 60 mg/kg i.p., 10 rats) | Number of seizures (PTZ induced seizures; [5]) | Duration of seizure activity (PTZ induced seizures; [5]) | Number of severe seizures (PTZ induced seizures; [5]) | Latency to seizure onset (PTZ induced seizures; [5]) | Neuronal damage (PI fluorescence in CA1) after OGD ischaemia [3, 6] | Neuronal damage (PI fluorescence in CA1) after OGD ischaemia ([3]; 250 μM, pre, during and post-ischaemia, vs OGD alone) | Neuronal damage (PI fluorescence in CA1) after OGD ischaemia ([3]; 500 μM, pre, during and post-ischaemia)
O=[Se](O)O [Sodium selenite, reference compound] | above 5 μM | – | – | – | – | – | – | – | – | – | – | – | – | – | – | –
O=[Se](=O)(O)O [sodium selenate] | – | neurotoxicity | not found to be toxic | Significant attenuation of damage | 8.5±2.1 | 770.9 ± 189.9 s | 0.8±0.1 | 217.6 ± 117.6 s | 1 animal | 9.9±2.2 | 808.6 ± 126.1 s | 0.9±0.1 | 107.6 ± 26.9 s | Significant attenuation of damage | Significant attenuation of damage | significant increase in toxicity
O=C(O)c1ccc(C2=C3C=CC(=N3)C(c3ccc(C(=O)O)cc3)=c3ccc([nH]3)=C(c3ccc(C(=O)O)cc3)c3ccc([n-]3)C(c3ccc(C(=O)O)cc3)c3ccc2[n-]3)cc1.[Cl-].[Mn+3] (stereo not drawn) [MnTBAP, Mn(III)tetrakis(4-benzoic acid)porphyrin chloride, reference compound] | – | – | – | prevented | – | – | – | – | – | – | – | – | – | prevented | – | –
